Experimental data published in patent US20230391739A1, “ARYL DERIVATIVES FOR TREATING TRPM3 MEDIATED DISORDERS” (Katholieke Universiteit Leuven, priority 2020, published 2023).

These compounds were tested against T1, mouse TRPM3α2 (mTRPM3) ion channel (Mus musculus, UniProt J9SQF3) (assay: TRPM3 ion channel driven Ca2+ uptake, Fluo-4 AM assay, PS-stimulated (mTRPM3)). Details: TRPM3 overexpressing flip-in HEK293 cells stimulated with Pregnenolone sulfate (PS) 50 μM, activity ranges A, B, C.
T1 construct: expressed in transfected cells; host or cells: flip-in HEK293
T1 sequence (J9SQF3 1-1709 isoform J9SQF3-12): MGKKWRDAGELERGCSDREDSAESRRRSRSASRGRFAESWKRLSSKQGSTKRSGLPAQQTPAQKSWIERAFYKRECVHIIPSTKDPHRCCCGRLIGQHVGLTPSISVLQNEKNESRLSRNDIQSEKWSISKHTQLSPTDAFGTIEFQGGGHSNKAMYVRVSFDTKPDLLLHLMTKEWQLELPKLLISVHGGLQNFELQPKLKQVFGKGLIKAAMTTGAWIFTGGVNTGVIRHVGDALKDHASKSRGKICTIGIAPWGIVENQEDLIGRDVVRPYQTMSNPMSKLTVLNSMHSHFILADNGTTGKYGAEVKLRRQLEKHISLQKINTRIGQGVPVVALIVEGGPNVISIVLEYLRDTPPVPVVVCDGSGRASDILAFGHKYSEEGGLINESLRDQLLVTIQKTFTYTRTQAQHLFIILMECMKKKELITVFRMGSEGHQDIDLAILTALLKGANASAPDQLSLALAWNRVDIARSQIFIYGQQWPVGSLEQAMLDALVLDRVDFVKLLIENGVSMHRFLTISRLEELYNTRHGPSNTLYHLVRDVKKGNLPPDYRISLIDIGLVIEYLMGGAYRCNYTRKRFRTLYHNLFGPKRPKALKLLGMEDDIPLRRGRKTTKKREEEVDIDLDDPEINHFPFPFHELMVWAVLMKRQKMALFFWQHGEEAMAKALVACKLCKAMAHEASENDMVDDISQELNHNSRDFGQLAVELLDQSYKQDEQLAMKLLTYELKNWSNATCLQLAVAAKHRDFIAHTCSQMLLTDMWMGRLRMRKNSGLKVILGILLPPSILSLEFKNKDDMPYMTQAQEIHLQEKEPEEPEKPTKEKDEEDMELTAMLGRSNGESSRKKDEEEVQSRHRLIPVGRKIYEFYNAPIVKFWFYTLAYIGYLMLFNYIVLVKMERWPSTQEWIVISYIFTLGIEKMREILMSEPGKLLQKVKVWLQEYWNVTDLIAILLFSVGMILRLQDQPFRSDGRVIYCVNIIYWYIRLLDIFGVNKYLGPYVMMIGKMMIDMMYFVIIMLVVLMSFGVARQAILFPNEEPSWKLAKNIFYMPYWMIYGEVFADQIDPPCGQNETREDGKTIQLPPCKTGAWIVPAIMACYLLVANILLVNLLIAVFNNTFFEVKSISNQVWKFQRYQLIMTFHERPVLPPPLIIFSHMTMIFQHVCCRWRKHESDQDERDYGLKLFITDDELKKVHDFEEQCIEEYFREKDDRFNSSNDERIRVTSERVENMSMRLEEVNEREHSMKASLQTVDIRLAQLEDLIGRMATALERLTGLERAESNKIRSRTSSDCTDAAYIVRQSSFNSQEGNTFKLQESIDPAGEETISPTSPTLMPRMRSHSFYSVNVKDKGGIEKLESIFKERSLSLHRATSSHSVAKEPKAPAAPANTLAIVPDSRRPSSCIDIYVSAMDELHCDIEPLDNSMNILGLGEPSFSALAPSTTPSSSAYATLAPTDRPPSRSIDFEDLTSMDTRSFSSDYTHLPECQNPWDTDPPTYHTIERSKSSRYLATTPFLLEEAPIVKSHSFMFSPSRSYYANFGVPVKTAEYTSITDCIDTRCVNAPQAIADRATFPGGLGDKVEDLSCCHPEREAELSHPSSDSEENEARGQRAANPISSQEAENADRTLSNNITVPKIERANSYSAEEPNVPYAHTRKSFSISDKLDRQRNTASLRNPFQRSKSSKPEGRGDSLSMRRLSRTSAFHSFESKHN
Format: cell-based
Description: Monitoring the TRPM3 Ion Channel Driven Ca^2+ Uptake.
In order to monitor the inhibition of the mouse TRPM3α2 (mTRPM3) ion channel by the compounds of the invention, a cellular system making use of an mTRPM3alpha2 or hTRPM3 overexpressing cell line (flip-in HEK293) was used. The TRPM3 channel was stimulated/opened with Pregnenolone sulfate (PS) (50 μM) which results in Ca^2+ influx.
For mTRPM3, the intracellular Ca^2+ was measured with a Calcium responsive dye, Fluor-4 AM ester (Invitrogen). Cells were cultured until a confluence of 80-90%, washed with Versene (Invitrogen) and detached from the surface by a short incubation with 0.05% Trypsin (Invitrogen). The trypsination process was stopped by the addition of complete cell culture medium (DMEM, glutamax, 10% FCS, NEAA, Pen-Strep). Cells were collected and resuspended in Krebs buffer without Calcium at RT.
Prior the cell seeding (±2000 cells/well into a black, 384 well plate (Greiner)) the diluted compound was added in the assay plate, together with the PS dissolved in Krebs buffer containing Calcium. […] Directly after cell addition the plates were read on an Envision fluorescence reader (Perkin Elmer) by an Excitation of 485 nm and emission at 535 nm.
Channel inhibition was calculated compared to a non-PS stimulated control versus a condition stimulated with PS (50 μM) with vehicle. The ability of the compounds of the invention to inhibit this activity was determined as: Percentage inhibition=[1−((RFU determined for sample with test compound present−RFU determined for sample with positive control inhibitor) divided by (RFU determined in the presence of vehicle−RFU determined for sample with positive control inhibitor))]*100.
The activities of the Example compounds tested are depicted in the table below.

| Structure (SMILES) | IC50 [nM] |
| --- | --- |
| Cc1oc2c(F)cc(OCc3ccccc3)cc2c1C(=O)NC1CNCC1(F)F (single isomer, unassigned) [Cpd 306-En 2] | 1000 to 20000 |
| Cc1oc2c(C)cc(OCc3ccccc3)cc2c1C(=O)NC1CNCC1(F)F (single isomer, unassigned) [Cpd 307-En 1, 5-(benzyloxy)-N-(4,4-difluoropyrrolidin-3-yl)-2,7-dimethylbenzofuran-3-carboxamide] | 1000 to 20000 |
| Cc1oc2c(C)cc(OCc3ccccc3)cc2c1C(=O)NC1CNCC1(F)F (single isomer, unassigned) [Cpd 307-En 2, 5-(benzyloxy)-N-(4,4-difluoropyrrolidin-3-yl)-2,7-dimethylbenzofuran-3-carboxamide] | > 20000 |
| Cc1oc2ccc(OC(C)c3ccccc3)cc2c1C(=O)NC1(CO)CCOCC1 (single isomer, unassigned) [Cpd 308-En 1, N-(4-(hydroxymethyl)tetrahydro-2H-pyran-4-yl)-2-methyl-5-(1-phenylethoxy)benzofuran-3-carboxamide] | < 1000 |
| Cc1oc2ccc(OC(C)c3ccccc3)cc2c1C(=O)NC1(CO)CCOCC1 (single isomer, unassigned) [Cpd 308-En 2, N-(4-(hydroxymethyl)tetrahydro-2H-pyran-4-yl)-2-methyl-5-(1-phenylethoxy)benzofuran-3-carboxamide] | < 1000 |
| Cc1oc2ccc(OCc3ccccc3F)cc2c1C(=O)NC1CCN(CCO)C1=O (single isomer, unassigned) [Cpd 311-En 1, 5-((2-Fluorobenzyl)oxy)-N-(1-(2-hydroxyethyl)-2-oxopyrrolidin-3-yl)-2-methylbenzofuran-3-carboxamide] | < 1000 |
| Cc1oc2ccc(OCc3ccccc3F)cc2c1C(=O)NC1CCN(CCO)C1=O (single isomer, unassigned) [Cpd 311-En 2, 5-((2-Fluorobenzyl)oxy)-N-(1-(2-hydroxyethyl)-2-oxopyrrolidin-3-yl)-2-methylbenzofuran-3-carboxamide] | < 1000 |
| Cc1oc2ccc(OCc3ccccc3F)cc2c1C(=O)NC(CO)C(N)=O (single isomer, unassigned) [Cpd 314-En 1] | < 1000 |
| Cc1oc2ccc(OCc3ccccc3F)cc2c1C(=O)NC(CO)C(N)=O (single isomer, unassigned) [Cpd 314-En 2] | < 1000 |
| Cc1oc2ccc(OC(CO)c3ccccc3)cc2c1C(=O)NC1(CO)CCOCC1 (single isomer, unassigned) [Cpd 317-En 1, 5-(2-hydroxy-1-phenylethoxy)-N-(4-(hydroxymethyl)tetrahydro-2H-pyran-4-yl)-2-methylbenzofuran-3-carboxamide] | < 1000 |
| Cc1oc2ccc(OC(CO)c3ccccc3)cc2c1C(=O)NC1(CO)CCOCC1 (single isomer, unassigned) [Cpd 317-En 2, 5-(2-hydroxy-1-phenylethoxy)-N-(4-(hydroxymethyl)tetrahydro-2H-pyran-4-yl)-2-methylbenzofuran-3-carboxamide] | 1000 to 20000 |
| Cc1oc2ccc(COc3ccccc3F)cc2c1C(=O)NC(C)C(N)=O (single isomer, unassigned) [Cpd 320-En 1] | < 1000 |
| Cc1oc2ccc(COc3ccccc3F)cc2c1C(=O)NC(C)C(N)=O (single isomer, unassigned) [Cpd 320-En 2] | < 1000 |
| Cc1oc2ccc(COc3ccccc3F)cc2c1C(=O)NC(CO)C(N)=O (single isomer, unassigned) [Cpd 321-En 1, N-(1-amino-3-hydroxy-1-oxopropan-2-yl)-5-((2-fluorophenoxy)methyl)-2-methylbenzofuran-3-carboxamide] | 1000 to 20000 |
| Cc1oc2ccc(COc3ccccc3F)cc2c1C(=O)NC(CO)C(N)=O (single isomer, unassigned) [Cpd 321-En 2, N-(1-amino-3-hydroxy-1-oxopropan-2-yl)-5-((2-fluorophenoxy)methyl)-2-methylbenzofuran-3-carboxamide] | < 1000 |
